Source: ChEMBL document CHEMBL3045181, “Flufenerim, a novel insecticide acting on diverse insect pests: biological mode of action and biochemical aspects” (2011)
The source made the active and inactive calls. The rule behind the calls is not given here.

Legend:
Spodoptera littoralis [1] = test: Insecticidal activity against Spodoptera littorali first-instar stages grown on compound pre-treated cotton leaves assessed as insect mortality at 0.5 mg/L of active ingredient measured 72 hr post compound dose; type: functional
Bemisia tabaci [2] = test: Insecticidal activity against adult Bemisia tabaci biotype B (sweet potato whitefly) reared on compound-pretreated cotton seedlings assessed as insect mortality at 0.5 mg/L of active ingredient measured 48 hr post compound dose; type: functional
Spodoptera frugiperda [3] = test: Insecticidal activity against Spodoptera frugiperda (fall armyworm) fed with compound pre-treated sweet corn foliage 3 hr after compound application assessed as induction of mortality on day 1 and 2 post compound application; type: functional
Spodoptera frugiperda [4] = test: Insecticidal activity against Spodoptera frugiperda (fall armyworm) fed with compound pre-treated sweet corn foliage 3 hr after compound application assessed as induction of mortality on day 0 post compound application; type: functional
Bemisia tabaci [5] = test: Insecticidal activity against adult Bemisia tabaci biotype B (sweet potato whitefly) reared on compound pre-treated cotton seedlings assessed as insect mortality at 20 mg/L of active ingredient measured up to 4 days post dose; type: functional
Bemisia tabaci [6] = test: Insecticidal activity against adult Bemisia tabaci biotype B (sweet potato whitefly) exposed to 0.1 mg of active ingredient per liter of compound for 30 generations reared on compound pre-treated cotton seedlings assessed as insect mortality at 0.8 mg/L of active ingredient; type: functional
Myzus persicae [7] = test: Insecticidal activity against Myzus persicae Fluf-RG-15 (green peach aphid) first nymphal stages exposed to 0.1 mg of active ingredient per liter of compound for 15 generations grown on compound pre-treated mustard leaves assessed as insect mortality measured 72 hr post compound dose; type: functional
Bemisia tabaci [8] = test: Insecticidal activity against thiamethoxam-resistant adult Bemisia tabaci ActRQ-G95 reared on compound-pre-treated cotton seedlings assessed as insect mortality; type: functional
Bemisia tabaci [9] = test: Inhibition of oviposition of Bemisia tabaci biotype B (sweet potato whitefly) reared on cotton seedlings at 10 mg/L of active ingredient by oviposition nonchoice assay; type: functional, organism-based
Bemisia tabaci [10] = test: Inhibition of oviposition of Bemisia tabaci biotype B (sweet potato whitefly) reared on cotton seedlings at 10 mg/L of active ingredient by oviposition choice assay; type: functional, organism-based
Spodoptera littoralis [11] = test: Insecticidal activity against Spodoptera littorali first-instar stages grown on compound pre-treated cotton leaves assessed as insect mortality measured 72 hr post compound dose; type: functional
Spodoptera littoralis [12] = test: Insecticidal activity against Spodoptera littorali first-instar stages grown on compound pre-treated cotton leaves assessed as insect mortality at 6.32 mg/L of active ingredient measured 72 hr post compound dose; type: functional
Bemisia tabaci [13] = test: In-vivo inhibition of Bemisia tabaci (sweet potato whitefly) AChE isolated from white fly feeding on compound-pre-treated cotton leaves for 48 hr assessed as reduction in acetylthiocholine iodide hydrolysis by Ellman method based colorimetry; type: functional, organism-based
AChE2 (Bemisia tabaci) = AChE2 (Bemisia tabaci) (UniProt B3SST5); test: Inhibition of AChE in Bemisia tabaci (sweet potato whitefly) homogenates assessed as reduction in acetylthiocholine iodide hydrolysis by Ellman method based colorimetry
Spodoptera littoralis [14] = test: Insecticidal activity against Spodoptera littorali first-instar stages grown on compound pre-treated cotton leaves assessed as insect mortality under out door conditions at 16 mg/L of active ingredient measured after 2 days post dose; type: functional
Bemisia tabaci [15] = test: Insecticidal activity against adult Bemisia tabaci biotype B (sweet potato whitefly) reared on compound pre-treated cotton seedlings assessed as insect mortality under out door conditions at 30 mg/L of active ingredient measured after 2 days post dose; type: functional
Bemisia tabaci [16] = test: Insecticidal activity against adult Bemisia tabaci biotype B (sweet potato whitefly) reared on compound pre-treated cotton seedlings assessed as insect mortality under out door conditions at 30 mg/L of active ingredient measured after 1 days post dose; type: functional
Bemisia tabaci [17] = test: Insecticidal activity against adult Bemisia tabaci biotype B (sweet potato whitefly) reared on compound pre-treated cotton seedlings assessed as insect mortality at 20 mg/L of active ingredient measured after 7 days post dose; type: functional, organism-based
Spodoptera littoralis [18] = test: Insecticidal activity against Spodoptera littorali first-instar stages grown on compound pre-treated cotton leaves assessed as insect mortality at 16 mg/L of active ingredient measured after 14 days post dose; type: functional
Spodoptera littoralis [19] = test: Insecticidal activity against Spodoptera littorali first-instar stages grown on compound pre-treated cotton leaves assessed as insect mortality at 16 mg/L of active ingredient measured after 7 days post dose; type: functional
Spodoptera littoralis [20] = test: Insecticidal activity against Spodoptera littorali first-instar stages grown on compound pre-treated cotton leaves assessed as insect mortality at 16 mg/L of active ingredient measured up to 4 days post dose; type: functional
Myzus persicae [21] = test: Insecticidal activity against Myzus persicae (green peach aphid) first nymphal stages grown on compound pre-treated mustard leaves assessed as insect mortality measured 72 hr post compound dose; type: functional
Myzus persicae [22] = test: Insecticidal activity against Myzus persicae (green peach aphid) first nymphal stages grown on compound pre-treated mustard leaves assessed as insect mortality at 1 mg/L of active ingredient measured 72 hr post compound dose; type: functional
Bemisia tabaci [23] = test: Insecticidal activity against adult Bemisia tabaci biotype B (sweet potato whitefly) reared on cotton seedlings assessed as induction of insect mortality; type: functional
Bemisia tabaci [24] = test: Insecticidal activity against adult Bemisia tabaci biotype B (sweet potato whitefly) reared on cotton seedlings assessed as insect mortality at 0.8 mg/L of active ingredient; type: functional

Sequence of AChE2 (Bemisia tabaci) (B3SST5 as listed by the source): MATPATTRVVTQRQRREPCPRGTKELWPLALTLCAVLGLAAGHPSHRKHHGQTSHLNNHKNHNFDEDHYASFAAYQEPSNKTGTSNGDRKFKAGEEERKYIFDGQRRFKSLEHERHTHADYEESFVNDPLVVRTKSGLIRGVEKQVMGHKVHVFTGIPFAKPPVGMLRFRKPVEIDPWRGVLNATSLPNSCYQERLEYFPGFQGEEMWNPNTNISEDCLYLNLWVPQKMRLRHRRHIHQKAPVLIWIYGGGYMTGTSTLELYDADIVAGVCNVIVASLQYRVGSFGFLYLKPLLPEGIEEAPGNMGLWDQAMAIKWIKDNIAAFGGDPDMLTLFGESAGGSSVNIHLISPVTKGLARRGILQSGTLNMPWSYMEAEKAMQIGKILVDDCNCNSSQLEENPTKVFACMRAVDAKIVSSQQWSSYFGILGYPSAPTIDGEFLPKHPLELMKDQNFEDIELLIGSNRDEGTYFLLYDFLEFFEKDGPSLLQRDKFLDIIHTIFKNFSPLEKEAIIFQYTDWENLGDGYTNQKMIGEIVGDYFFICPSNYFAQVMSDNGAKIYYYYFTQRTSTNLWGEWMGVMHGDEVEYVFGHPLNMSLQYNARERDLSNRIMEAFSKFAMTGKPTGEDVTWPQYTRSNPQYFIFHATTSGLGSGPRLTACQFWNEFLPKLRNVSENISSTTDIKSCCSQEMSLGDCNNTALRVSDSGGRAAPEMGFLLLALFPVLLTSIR

In the case of `CNC(=O)ON=C(C)SC` [METHOMYL], the mortality (Spodoptera littoralis [1]) is reported as 6%, the mortality (Bemisia tabaci [2]) is reported as 10% and the mortality (Spodoptera frugiperda [3]) is reported as 5%. The mortality (Spodoptera frugiperda [4]) was 50%.
For `CC(F)c1ncnc(NCCc2ccc(OC(F)(F)F)cc2)c1Cl` (configuration not stated) [FLUFENERIM], the mortality (Bemisia tabaci [5]) was 80%, the LC50 (Bemisia tabaci [6]) was 2.38 mgAi/L and the LC90 (Bemisia tabaci [6]) was 6.32 mgAi/L. For the same compound, the LC50 (Myzus persicae [7]) was 0.31 mgAi/L, the LC90 (Myzus persicae [7]) was 1.22 mgAi/L and the LC50 (Bemisia tabaci [8]) was 0.41 mgAi/L. For the same compound, the LC90 (Bemisia tabaci [8]) was 2.4 mgAi/L, the inhibition (Bemisia tabaci [9]) was “Active” and the inhibition (Bemisia tabaci [10]) was “Active”. For the same compound, the mortality (Spodoptera littoralis [1]) was 90%, the mortality (Bemisia tabaci [2]) was 94% and the LC50 (Spodoptera littoralis [11]) was 2.38 mgAi/L. For the same compound, the mortality (Spodoptera littoralis [12]) was 90%, the inhibition (Bemisia tabaci [13]) was “Active” and the inhibition (AChE2 (Bemisia tabaci)) was “Active”. The mortality (Spodoptera littoralis [14]) was >80%, the mortality (Bemisia tabaci [15]) was 30% and the mortality (Bemisia tabaci [16]) was 90%. For the same compound, the Activity (Bemisia tabaci [17]) was “inactive”, the mortality (Spodoptera littoralis [18]) was 28% and the mortality (Spodoptera littoralis [19]) was 55%. For the same compound, the mortality (Spodoptera littoralis [20]) was 80%, the LC50 (Myzus persicae [21]) was 0.39 mgAi/L and the LC90 (Myzus persicae [21]) was 1.12 mgAi/L. The mortality (Myzus persicae [22]) was 90%, the LC50 (Bemisia tabaci [23]) was 0.35 mgAi/L and the LC90 (Bemisia tabaci [23]) was 1.24 mgAi/L. For the same compound, the mortality (Bemisia tabaci [24]) was 97%.
